Among the data in BindingDB's records for patent US20250066318 (Prothena Biosciences, 2025) are IC50 values, retold here.

For orientation: IC50 means the concentration that gives 50% inhibition. The low end stands for greater potency, the high end for weaker potency.

Each structure is given as a SMILES string.

The target of the assay is Dual specificity tyrosine-phosphorylation-regulated kinase 1A (Homo sapiens, UniProt Q13627). In words: DYRK1A Inhibition Assay. As to the method: 1. Add 5 μL enzyme & substrate mixture to each well in Column 2-23 and A24-H24 wells of the 384-well assay plate;2. Add 5 μL 0% Phosphorylation control to A1-H1 and I24-P24 wells of the assay plate;3. Add 5 μL 100% Phosphorylation control to I1-P1 wells of the assay plate;4. Spin the assay plate (1000 rpm, 1 minute @23° C.);5. Incubate enzyme with compounds for 15 minutes at 23° C.;6. Add 5 μL ATP solution to each well of the assay plate;7. Spin the plate (1000 rpm, 1 minute @23° C.);8. Incubate the assay plate for 90 minutes at 23° C.;9. Add 10 μL Development reagent A to each well of the assay plate;10. Centrifuge the plate at 1000 rpm about 15 seconds and seal a film over assay plate. Incubate the assay plate for 30 minutes at 23° C.11. Read assay plates on Envision (see Tables A, B, and C).Final Compound ConcentrationsAssay buffer: 50 mM Hepes pH7.5, 10 mM MgCl2, 1 mM EDTA, 0.01% Brij-35DYRK1A: 1 nMATP: 20 μMSer/Thr 18 peptide: 2 μMReaction time: 90 minutes.
For the molecule `CC(=O)N1CCN(Cc2cc3cc(-c4cnc(C#CC5CCOCC5)s4)ccc3cn2)CC1` [US20250066318, Compound I.101], the IC50 is > 1000 nM. `CC(C)CN1CCC(C(=O)Nc2ncc(-c3ccc4cnc(C5CC5)cc4c3)s2)CC1` [US20250066318, Compound I.105] yielded an IC50 of 55 nM.

`O=C(O)[C@H]1C[C@H](Nc2c(-c3cncs3)ccc3cnccc23)C1` [US20250066318, Compound I.67]: the IC50 is > 1000 nM.

`O=C(O)[C@H]1C[C@H](Oc2c(-c3cncs3)ccc3cnccc23)C1` [US20250066318, Compound I.70]: the IC50 was found to be 550 nM. In turn, `CN1CCC(C#Cc2cc3cc(-c4cnn(C)c4)ccc3cn2)CC1` [US20250066318, Compound I.107] showed an IC50 of 55 nM. In the case of `Cc1ncc2ccc(-c3cnn(C)c3)cc2c1OC1CNC1` [US20250066318, Compound I.77], the IC50 was determined as 55 nM. This lies in the double-digit nanomolar range. Take `COc1cncc2ccc(-c3cnn4cc(-c5ccc(=O)n(C)c5)cnc34)cc12` [US20250066318, Compound I.93]: the IC50 was < 10 nM.

In the case of `CN(C)[C@H]1CC[C@H](Oc2cc3cc(-c4cnc(C#CC5CCOCC5)s4)ccc3cn2)CC1` [US20250066318, Compound I.102], the IC50 was > 1000 nM. Consider `CC(C)CN1CCC(C#Cc2ncc(-c3ccc4cnc(Cl)cc4c3)s2)CC1` [US20250066318, Compound I.104], for which the midpoint of inhibition, the IC50, lay at 55 nM.

`CN1CC=C(c2cn3ncc(-c4ccc(C#N)cc4)c3c(=O)[nH]2)CC1` [US20250066318, Compound II.46] yielded an IC50 of 175 nM. The figure for `CC(=O)N1CCC(Oc2cncc3ccc(-c4cnn5cc(C(F)(F)F)ccc45)cc23)CC1` [US20250066318, Compound I.86] is < 10 nM.

`C(#CC1CCOCC1)c1ncc(-c2ccc3cnc(OC4CCNCC4)cc3c2)s1` [US20250066318, Compound I.98] showed an IC50 of 550 nM. For `Cc1ncc2ccc(-c3cnn(C)c3)cc2c1O[C@H]1C[C@H](O)C1` [US20250066318, Compound I.82] the value was < 10 nM.

Regarding `Cn1cc(-c2ccc3cnc(NC(=O)OC4(C)CC4)cc3c2)cn1` [US20250066318, Compound I.83], the IC50 is < 10 nM.

On to `CS(=O)(=O)N1CCC(Oc2cncc3ccc(-c4cnn5cc(C(F)(F)F)ccc45)cc23)CC1` [US20250066318, Compound I.85], for which the IC50 is < 10 nM. As for `CC(=O)N1CCC(Oc2cncc3ccc(-c4cnc(C#CC5CCOCC5)s4)cc23)CC1` [US20250066318, Compound I.96], the IC50 was < 10 nM.

Consider `Cn1cc(-c2ccc3cnc(C#CC4CCOCC4)cc3c2)cn1` [US20250066318, Compound I.108], for which the IC50 amounted to 55 nM.

Regarding `N#Cc1cncc2ccc(-c3cnc(C#CC4CCOCC4)s3)cc12` [US20250066318, Compound I.94], the IC50 amounted to 550 nM. For `CN(C)[C@H]1CC[C@@H](Oc2cc3cc(-c4cnc(C#CC5CCOCC5)s4)ccc3cn2)CC1` [US20250066318, Compound I.103], the IC50 is > 1000 nM. For the molecule `O=C(O)C1CCN(Cc2cncc3ccc(-c4cnn5cc(C(F)(F)F)ccc45)cc23)CC1` [US20250066318, Compound I.88], half-maximal inhibition (IC50) required 550 nM. As for `CN1CCC(Oc2cc3cc(-c4cnc(C#CC5CCOCC5)s4)ccc3cn2)CC1` [US20250066318, Compound I.100], the IC50 came to 550 nM. That is a sub-micromolar value. Regarding `Cc1ncc2ccc(-c3cncs3)cc2c1O[C@H]1C[C@@H](O)C1` [US20250066318, Compound I.79], the IC50 was < 10 nM. The molecule `O=C(O)C1CC(Nc2cc3cc(-c4cncs4)ccc3cn2)C1` (stereo not drawn) [US20250066318, Compound I.74] displayed an IC50 of 55 nM. The figure for `C(#CC1CCOCC1)c1ncc(-c2ccc3cncc(OC4CCNCC4)c3c2)s1` [US20250066318, Compound I.95] is < 10 nM. The figure for `Cn1cc(C#Cc2ncc(-c3ccc4cnccc4c3)s2)ccc1=O` [US20250066318, Compound I.92] is < 10 nM; for `O=C(O)[C@H]1C[C@@H](Nc2ncc(-c3ccc4cnccc4c3)s2)C1` [US20250066318, Compound I.71] it is 55 nM. The figure for `O=C(O)[C@H]1C[C@@H](Nc2c(-c3cncs3)ccc3cnccc23)C1` [US20250066318, Compound I.68] is 550 nM; for `Cc1c(F)ncc2ccc(-c3cnn(C)c3)cc12` [US20250066318, Compound I.64] it is 55 nM; for `CC(=O)N1CCC(Oc2cc3cc(-c4cnc(C#CC5CCOCC5)s4)ccc3cn2)CC1` [US20250066318, Compound I.99] it is > 1000 nM. Consider `Cc1ncc2ccc(-c3cncs3)cc2c1OC1CNC1` [US20250066318, Compound I.75], for which the IC50 was determined as 55 nM. For `CN1CCC(c2cn3ncc(-c4ccc(C#N)cc4)c3c(=O)n2C)CC1` [US20250066318, Compound II.45] the value was 625 nM.

For `CN1CCc2c(c(-c3cnc4c(-c5ccc(C#N)cc5)cnn4c3)cn(C)c2=O)C1` [US20250066318, Compound II.43], the 50% inhibitory concentration (IC50) is > 1000 nM. For `Cc1ncc2ccc(-c3cnn(C)c3)cc2c1OC1CN(C)C1` [US20250066318, Compound I.78] the value was 55 nM. Consider `N#Cc1cccc(Oc2cncc3ccc(-c4cnc5ccccn45)cc23)c1` [US20250066318, Compound I.6], for which the half-maximal inhibitory concentration (IC50) amounted to 550 nM. In turn, `Cn1cc(-c2ccc3cnc(C#CC4CCNCC4)cc3c2)cn1` [US20250066318, Compound I.106] displayed an IC50 of 55 nM.

For `Cc1ncc2ccc(-c3cncs3)cc2c1O[C@H]1C[C@H](O)C1` [US20250066318, Compound I.80], the half-maximal inhibitory concentration (IC50) is < 10 nM. On to `Cc1ncc2ccc(-c3cnn(C)c3)cc2c1O[C@H]1C[C@@H](O)C1` [US20250066318, Compound I.81], for which the concentration for half-maximal inhibition (IC50) was < 10 nM.

Take `CC(=O)N1CCN(Cc2cncc3ccc(-c4cnn5cc(C(F)(F)F)ccc45)cc23)CC1` [US20250066318, Compound I.89]: half-maximal inhibition (IC50) required 55 nM.

`O=C(O)[C@H]1C[C@@H](Oc2c(-c3cncs3)ccc3cnccc23)C1` [US20250066318, Compound I.69] showed an IC50 of 550 nM.

The molecule `Cn1c(C2CCNCC2)cn2ncc(-c3ccc(C#N)cc3)c2c1=O` [US20250066318, Compound II.44] returned an IC50 of 625 nM. This IC50 and that of the molecule before are within 1.5-fold of each other. The molecule `Cc1ncc2ccc(-c3cncs3)cc2c1OC1CN(C)C1` [US20250066318, Compound I.76] displayed a concentration for half-maximal inhibition (IC50) of 550 nM. For `O=C(O)C1CN(c2cn3ncc(-c4ccc5cnccc5c4)c3cn2)C1` [US20250066318, Compound I.73] the value was < 10 nM; for `CN1CCC(Oc2cncc3ccc(-c4cnc(C#CC5CCOCC5)s4)cc23)CC1` [US20250066318, Compound I.97], < 10 nM.
